Measurements reported in PubChem BioAssay (NCI).
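All cell lines were grown in 96-well plates and treated with compound for 48 hours. Abbreviation: GI50, concentration required for 50% inhibition of growth. TGI is the concentration that stops growth completely.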

Assays:
Experiment in all cases: NCI anticancer screen, dose series, 48 h
[1] = tested on: SW-620 colon
[2] = tested on: HT29 colon
[3] = tested on: TK-10 renal
[4] = tested on: MOLT-4 leukemia
[5] = tested on: ACHN renal
[6] = tested on: U251 CNS
[7] = tested on: MDA-MB-435
[8] = tested on: CCRF-CEM leukemia
[9] = tested on: SN12C renal
[10] = tested on: HS 578T breast
[11] = tested on: MDA-MB-231 breast
[12] = tested on: HCT-15 colon
[13] = tested on: UACC-257 melanoma
[14] = tested on: CAKI-1 renal
[15] = tested on: OVCAR-8 ovarian
[16] = tested on: SR leukemia
[17] = tested on: SF-539 CNS
[18] = tested on: M14 melanoma
[19] = tested on: HOP-92 NSCLC
[20] = tested on: SNB-19 CNS
[21] = tested on: 786-0 renal
[22] = tested on: SK-OV-3 ovarian
[23] = tested on: SF-295 CNS
[24] = tested on: NCI-H226 lung
[25] = tested on: BT-549 breast
[26] = tested on: PC-3 prostate
[27] = tested on: SK-MEL-28 melanoma
[28] = tested on: COLO 205 colon
[29] = tested on: LOX IMVI melanoma
[30] = tested on: SNB-75 CNS
[31] = tested on: A549 NSCLC
[32] = tested on: RPMI-8226 leukemia
[33] = tested on: NCI-H460 lung
[34] = tested on: MCF7 breast
[35] = tested on: OVCAR-5 ovarian
[36] = tested on: KM12 colon
[37] = tested on: RXF 393 renal
[38] = tested on: HCT-116 colon
[39] = tested on: IGROV1 ovarian
[40] = tested on: UACC-62 melanoma
[41] = tested on: SK-MEL-2 melanoma
[42] = tested on: NCI/ADR-RES ovarian
[43] = tested on: T-47D breast
[44] = tested on: NCI-H522 lung
[45] = tested on: MALME-3M melanoma
[46] = tested on: OVCAR-4 ovarian
[47] = tested on: HCC-2998 colon
[48] = tested on: SF-268 CNS
[49] = tested on: UO-31 renal
[50] = tested on: NCI-H23 lung
[51] = tested on: OVCAR-3 ovarian
[52] = tested on: HOP-62 NSCLC
[53] = tested on: DU-145 prostate
[54] = tested on: EKVX NSCLC
[55] = tested on: A498 renal

## N#Cc1c(NCc2ccccc2)nc(NCc2ccccc2)c(C#N)c1-c1cccc(O)c1
[1]
  GI50: 4.49 µM
  TGI: 68.2 µM
[2]
  GI50: 41.3 µM
  TGI: > 100 µM
[3]
  GI50: 4.11 µM
  TGI: 17.4 µM
[4]
  GI50: 3.3 µM
  TGI: > 100 µM
[5]
  GI50: 2.63 µM
  TGI: 11.7 µM
[6]
  GI50: 4.02 µM
  TGI: 15.4 µM
[7]
  GI50: 2.91 µM
  TGI: 9.97 µM
[8]
  GI50: 3.38 µM
  TGI: > 100 µM
[9]
  GI50: 2.31 µM
  TGI: 6.69 µM
[10]
  GI50: 3.76 µM
  TGI: 20.7 µM
[11]
  GI50: 2.23 µM
  TGI: 7.34 µM
[12]
  GI50: 4.33 µM
  TGI: 33.7 µM
[13]
  GI50: > 100 µM
  TGI: > 100 µM
[14]
  GI50: 2.77 µM
  TGI: 19.4 µM
[15]
  GI50: 19.2 µM
  TGI: 52.2 µM
[16]
  GI50: 2.09 µM
  TGI: 7.48 µM
[17]
  GI50: 5.18 µM
  TGI: 22.1 µM
[18]
  GI50: 6.65 µM
  TGI: > 100 µM
[19]
  GI50: 2.51 µM
  TGI: 18.9 µM
[20]
  GI50: 17.1 µM
  TGI: > 100 µM
[21]
  GI50: 13 µM
  TGI: 27.6 µM
[22]
  GI50: 7.79 µM
  TGI: 46.5 µM
[23]
  GI50: 2.92 µM
  TGI: 13.2 µM
[24]
  GI50: 2.91 µM
  TGI: 7.86 µM
[25]
  GI50: 10.1 µM
  TGI: 35.8 µM
[26]
  GI50: 4.66 µM
  TGI: 28.8 µM
[27]
  GI50: 61 µM
  TGI: > 100 µM
[28]
  GI50: 36.7 µM
  TGI: > 100 µM
[29]
  GI50: 2.96 µM
  TGI: 11.5 µM
[30]
  GI50: 39.4 µM
  TGI: > 100 µM
[31]
  GI50: 13.3 µM
  TGI: 63.5 µM
[32]
  GI50: 3.11 µM
  TGI: 22.6 µM
[33]
  GI50: 14.9 µM
  TGI: 31.4 µM
[34]
  GI50: 12.7 µM
  TGI: 88.4 µM
[35]
  GI50: 21.3 µM
  TGI: 48 µM
[36]
  GI50: 4.03 µM
  TGI: > 100 µM
[37]
  GI50: 13.8 µM
  TGI: 34.9 µM
[38]
  GI50: 4.48 µM
  TGI: 16.1 µM
[39]
  GI50: 19.7 µM
  TGI: 41.1 µM
[40]
  GI50: 2.1 µM
  TGI: 7.04 µM
[41]
  GI50: 6.23 µM
  TGI: 23 µM
[42]
  GI50: 13.8 µM
  TGI: 48 µM
[43]
  GI50: 4.03 µM
  TGI: > 100 µM
[44]
  GI50: 5.89 µM
  TGI: 33.1 µM
[45]
  GI50: 10.1 µM
  TGI: 32.5 µM
[46]
  GI50: 23.6 µM
  TGI: > 100 µM
[47]
  GI50: 95.5 µM
  TGI: > 100 µM
[48]
  GI50: 19.5 µM
  TGI: 46.5 µM
[49]
  GI50: 6.12 µM
  TGI: 87.6 µM
[50]
  GI50: 11 µM
  TGI: 37.4 µM
[51]
  GI50: 3.31 µM
  TGI: 19.4 µM
[52]
  GI50: 10.5 µM
  TGI: 23.1 µM
[53]
  GI50: 12.8 µM
  TGI: 34.4 µM
[54]
  GI50: 11.6 µM
  TGI: 45 µM
[55]
  GI50: 2.01 µM
  TGI: 5.77 µM
